Data as given in patent US20250147039A1, “Compounds for complexation of rare earth elements and/or s-, p-, d- block metals, their coordination compounds, peptide conjugates, method of their preparation and use thereof” (USTAV ORGANICKE CHEMIE A BIOCHEMIE AV CR V.V.I., priority 2021, published 2025).
One block for each compound: values may come before it.

Assays:
[1] = Formation of 1,5-cz-[M(Lig)] from Lig and M^III ions (metal dependent click-zip) (Charts 4, 5); format: physicochemical; conditions: MOPS/NaOH buffer pH 7.0; for conversion to 1,5-cz-[M(Lig)], Sc^III / conversion to 1,5-cz-[M(Lig)], Y^III: TD728, TD827 in 50% i-PrOH; for conversion to 1,5-cz-[M(Lig)], Y^III: TD714 sum of two diastereoisomers
[2] = Formation of 1,5-cz-[Ln(Lig)] from Lig and Ln^III ions (metal dependent click-zip), MOPS/NaOH buffer pH 7.0, analytical HPLC (Charts 1, 2); conditions: MOPS/NaOH buffer pH 7.0

conversion to 1,5-cz-[M(Lig)], Sc^III ([1]; 1 week at 80° C.): 4% | conversion to 1,5-cz-[M(Lig)], Y^III ([1]; 1 week at 80° C.): 63% | conversion to 1,5-cz-[M(Lig)], Sc^III ([1]; 1 hour at 80° C.): 0% | conversion to 1,5-cz-[M(Lig)], Y^III ([1]; 1 hour at 80° C.): 1% | conversion to 1,5-cz-[Ln(Lig)], Ce^III ([2]; after 1 week at 80° C.): 3% | conversion to 1,5-cz-[Ln(Lig)], Ce^III ([2]; after 1 hour at 80° C.): 0% | conversion to 1,5-cz-[Ln(Lig)], Dy^III ([2]; after 1 week at 80° C.): 51% | conversion to 1,5-cz-[Ln(Lig)], Dy^III ([2]; after 1 hour at 80° C.): 0% | conversion to 1,5-cz-[Ln(Lig)], Er^III ([2]; after 1 week at 80° C.): 84% | conversion to 1,5-cz-[Ln(Lig)], Er^III ([2]; after 1 hour at 80° C.): 1% | conversion to 1,5-cz-[Ln(Lig)], Eu^III ([2]; after 1 week at 80° C.): 19% | conversion to 1,5-cz-[Ln(Lig)], Eu^III ([2]; after 1 hour at 80° C.): 0% | conversion to 1,5-cz-[Ln(Lig)], Gd^III ([2]; after 1 week at 80° C.): 23% | conversion to 1,5-cz-[Ln(Lig)], Gd^III ([2]; after 1 hour at 80° C.): 0% | conversion to 1,5-cz-[Ln(Lig)], Ho^III ([2]; after 1 week at 80° C.): 68% | conversion to 1,5-cz-[Ln(Lig)], Ho^III ([2]; after 1 hour at 80° C.): 1% | conversion to 1,5-cz-[Ln(Lig)], La^III ([2]; after 1 week at 80° C.): 4% | conversion to 1,5-cz-[Ln(Lig)], La^III ([2]; after 1 hour at 80° C.): 0% | conversion to 1,5-cz-[Ln(Lig)], Lu^III ([2]; after 1 week at 80° C.): 94% | conversion to 1,5-cz-[Ln(Lig)], Lu^III ([2]; after 1 hour at 80° C.): 2% | conversion to 1,5-cz-[Ln(Lig)], Nd^III ([2]; after 1 week at 80° C.): 8% | conversion to 1,5-cz-[Ln(Lig)], Nd^III ([2]; after 1 hour at 80° C.): 0% | conversion to 1,5-cz-[Ln(Lig)], Pr^III ([2]; after 1 week at 80° C.): 6% | conversion to 1,5-cz-[Ln(Lig)], Pr^III ([2]; after 1 hour at 80° C.): 0% | conversion to 1,5-cz-[Ln(Lig)], Sm^III ([2]; after 1 week at 80° C.): 16% | conversion to 1,5-cz-[Ln(Lig)], Sm^III ([2]; after 1 hour at 80° C.): 0% | conversion to 1,5-cz-[Ln(Lig)], Tb^III ([2]; after 1 week at 80° C.): 37% | conversion to 1,5-cz-[Ln(Lig)], Tb^III ([2]; after 1 hour at 80° C.): 0% | conversion to 1,5-cz-[Ln(Lig)], Tm^III ([2]; after 1 week at 80° C.): 93% | conversion to 1,5-cz-[Ln(Lig)], Tm^III ([2]; after 1 hour at 80° C.): 1% | conversion to 1,5-cz-[Ln(Lig)], Yb^III ([2]; after 1 week at 80° C.): 95% | conversion to 1,5-cz-[Ln(Lig)], Yb^III ([2]; after 1 hour at 80° C.): 2%
Compound: [N-]=[N+]=NCc1cccc(CN2CCN(CC(=O)O)CCN(Cc3cccc(C#Cc4ccccc4)n3)CCN(CC(=O)O)CC2)n1 [TD944]

conversion to 1,5-cz-[Ln(Lig)] with hydrolysed group in the side chain, Sc^III ([1]; 1 week at 80° C.): 11% | conversion to 1,5-cz-[Ln(Lig)] with hydrolysed group in the side chain, Y^III ([1]; 1 week at 80° C.): 94% | conversion to 1,5-cz-[M(Lig)], Sc^III ([1]; 1 week at 80° C.): 0% | conversion to 1,5-cz-[M(Lig)], Y^III ([1]; 1 week at 80° C.): 0% | conversion to 1,5-cz-[Ln(Lig)] with hydrolysed group in the side chain, Sc^III ([1]; 1 hour at 80° C.): 0% | conversion to 1,5-cz-[Ln(Lig)] with hydrolysed group in the side chain, Y^III ([1]; 1 hour at 80° C.): 3% | conversion to 1,5-cz-[M(Lig)], Sc^III ([1]; 1 hour at 80° C.): 0% | conversion to 1,5-cz-[M(Lig)], Y^III ([1]; 1 hour at 80° C.): 18% | conversion to 1,5-cz-[Ln(Lig)] with hydrolysed group in the side chain, Ce^III ([2]; after 1 week at 80° C.): 27% | conversion to 1,5-cz-[Ln(Lig)], Ce^III ([2]; after 1 week at 80° C.): 0% | conversion to 1,5-cz-[Ln(Lig)] with hydrolysed group in the side chain, Ce^III ([2]; after 1 hour at 80° C.): 0% | conversion to 1,5-cz-[Ln(Lig)], Ce^III ([2]; after 1 hour at 80° C.): 0% | conversion to 1,5-cz-[Ln(Lig)] with hydrolysed group in the side chain, Dy^III ([2]; after 1 week at 80° C.): 93% | conversion to 1,5-cz-[Ln(Lig)], Dy^III ([2]; after 1 week at 80° C.): 0% | conversion to 1,5-cz-[Ln(Lig)] with hydrolysed group in the side chain, Dy^III ([2]; after 1 hour at 80° C.): 2% | conversion to 1,5-cz-[Ln(Lig)], Dy^III ([2]; after 1 hour at 80° C.): 14% | conversion to 1,5-cz-[Ln(Lig)] with hydrolysed group in the side chain, Er^III ([2]; after 1 week at 80° C.): 94% | conversion to 1,5-cz-[Ln(Lig)], Er^III ([2]; after 1 week at 80° C.): 0% | conversion to 1,5-cz-[Ln(Lig)] with hydrolysed group in the side chain, Er^III ([2]; after 1 hour at 80° C.): 4% | conversion to 1,5-cz-[Ln(Lig)], Er^III ([2]; after 1 hour at 80° C.): 33% | conversion to 1,5-cz-[Ln(Lig)] with hydrolysed group in the side chain, Eu^III ([2]; after 1 week at 80° C.): 90% | conversion to 1,5-cz-[Ln(Lig)], Eu^III ([2]; after 1 week at 80° C.): 0% | conversion to 1,5-cz-[Ln(Lig)] with hydrolysed group in the side chain, Eu^III ([2]; after 1 hour at 80° C.): 0% | conversion to 1,5-cz-[Ln(Lig)], Eu^III ([2]; after 1 hour at 80° C.): 4% | conversion to 1,5-cz-[Ln(Lig)] with hydrolysed group in the side chain, Gd^III ([2]; after 1 week at 80° C.): 90% | conversion to 1,5-cz-[Ln(Lig)], Gd^III ([2]; after 1 week at 80° C.): 0% | conversion to 1,5-cz-[Ln(Lig)] with hydrolysed group in the side chain, Gd^III ([2]; after 1 hour at 80° C.): 1% | conversion to 1,5-cz-[Ln(Lig)], Gd^III ([2]; after 1 hour at 80° C.): 5% | conversion to 1,5-cz-[Ln(Lig)] with hydrolysed group in the side chain, Ho^III ([2]; after 1 week at 80° C.): 94% | conversion to 1,5-cz-[Ln(Lig)], Ho^III ([2]; after 1 week at 80° C.): 0% | conversion to 1,5-cz-[Ln(Lig)] with hydrolysed group in the side chain, Ho^III ([2]; after 1 hour at 80° C.): 3% | conversion to 1,5-cz-[Ln(Lig)], Ho^III ([2]; after 1 hour at 80° C.): 21% | conversion to 1,5-cz-[Ln(Lig)] with hydrolysed group in the side chain, La^III ([2]; after 1 week at 80° C.): 36% | conversion to 1,5-cz-[Ln(Lig)], La^III ([2]; after 1 week at 80° C.): 0% | conversion to 1,5-cz-[Ln(Lig)] with hydrolysed group in the side chain, La^III ([2]; after 1 hour at 80° C.): 0% | conversion to 1,5-cz-[Ln(Lig)], La^III ([2]; after 1 hour at 80° C.): 0% | conversion to 1,5-cz-[Ln(Lig)] with hydrolysed group in the side chain, Lu^III ([2]; after 1 week at 80° C.): 96% | conversion to 1,5-cz-[Ln(Lig)], Lu^III ([2]; after 1 week at 80° C.): 0% | conversion to 1,5-cz-[Ln(Lig)] with hydrolysed group in the side chain, Lu^III ([2]; after 1 hour at 80° C.): 6% | conversion to 1,5-cz-[Ln(Lig)], Lu^III ([2]; after 1 hour at 80° C.): 57% | conversion to 1,5-cz-[Ln(Lig)] with hydrolysed group in the side chain, Nd^III ([2]; after 1 week at 80° C.): 71% | conversion to 1,5-cz-[Ln(Lig)], Nd^III ([2]; after 1 week at 80° C.): 0% | conversion to 1,5-cz-[Ln(Lig)] with hydrolysed group in the side chain, Nd^III ([2]; after 1 hour at 80° C.): 0% | conversion to 1,5-cz-[Ln(Lig)], Nd^III ([2]; after 1 hour at 80° C.): 1% | conversion to 1,5-cz-[Ln(Lig)] with hydrolysed group in the side chain, Pr^III ([2]; after 1 week at 80° C.): 61% | conversion to 1,5-cz-[Ln(Lig)], Pr^III ([2]; after 1 week at 80° C.): 0% | conversion to 1,5-cz-[Ln(Lig)] with hydrolysed group in the side chain, Pr^III ([2]; after 1 hour at 80° C.): 0% | conversion to 1,5-cz-[Ln(Lig)], Pr^III ([2]; after 1 hour at 80° C.): 0% | conversion to 1,5-cz-[Ln(Lig)] with hydrolysed group in the side chain, Sm^III ([2]; after 1 week at 80° C.): 86% | conversion to 1,5-cz-[Ln(Lig)], Sm^III ([2]; after 1 week at 80° C.): 0% | conversion to 1,5-cz-[Ln(Lig)] with hydrolysed group in the side chain, Sm^III ([2]; after 1 hour at 80° C.): 0% | conversion to 1,5-cz-[Ln(Lig)], Sm^III ([2]; after 1 hour at 80° C.): 3% | conversion to 1,5-cz-[Ln(Lig)] with hydrolysed group in the side chain, Tb^III ([2]; after 1 week at 80° C.): 91% | conversion to 1,5-cz-[Ln(Lig)], Tb^III ([2]; after 1 week at 80° C.): 0% | conversion to 1,5-cz-[Ln(Lig)] with hydrolysed group in the side chain, Tb^III ([2]; after 1 hour at 80° C.): 1% | conversion to 1,5-cz-[Ln(Lig)], Tb^III ([2]; after 1 hour at 80° C.): 9% | conversion to 1,5-cz-[Ln(Lig)] with hydrolysed group in the side chain, Tm^III ([2]; after 1 week at 80° C.): 95% | conversion to 1,5-cz-[Ln(Lig)], Tm^III ([2]; after 1 week at 80° C.): 0% | conversion to 1,5-cz-[Ln(Lig)] with hydrolysed group in the side chain, Tm^III ([2]; after 1 hour at 80° C.): 5% | conversion to 1,5-cz-[Ln(Lig)], Tm^III ([2]; after 1 hour at 80° C.): 45% | conversion to 1,5-cz-[Ln(Lig)] with hydrolysed group in the side chain, Yb^III ([2]; after 1 week at 80° C.): 95% | conversion to 1,5-cz-[Ln(Lig)], Yb^III ([2]; after 1 week at 80° C.): 0% | conversion to 1,5-cz-[Ln(Lig)] with hydrolysed group in the side chain, Yb^III ([2]; after 1 hour at 80° C.): 5% | conversion to 1,5-cz-[Ln(Lig)], Yb^III ([2]; after 1 hour at 80° C.): 54%
Compound: C#Cc1cccc(CN2CCN(CC(=O)O)CCN(Cc3cc(C(=O)OC(C)C)cc(CN=[N+]=[N-])n3)CCN(CC(=O)O)CC2)n1 [TD1148]
